{"source": "paper PMC13250552", "about": "(Proceedings of the National Academy of Sciences of the …, 2026)", "key": {"SiHa cells [1]": {"tested_on": "SiHa cells", "experiment": "Senescence SA-β-gal assay, SiHa", "assay_type": "cell-based, human", "conditions": "48 h, KTI-240 3 μM, etoposide 2 μM"}, "C51S cells": {"tested_on": "C51S cells", "assay_type": "cell-based", "conditions": "48 h, KTI-240 3 μM, etoposide 2 μM"}, "SiHa cells [2]": {"tested_on": "SiHa cells", "assay_type": "cell-based", "conditions": "24 hours"}, "SiHa-C51S cells": {"tested_on": "SiHa-C51S cells", "assay_type": "cell-based", "conditions": "24 hours"}, "RPE-1 cells": {"tested_on": "RPE-1 cells", "assay_type": "cell-based", "conditions": "p53 wild-type, HPV-negative"}, "UM-SCC-104": {"tested_on": "UM-SCC-104", "experiment": "Immunoblot of p53 and p21 in UM-SCC-104 cells", "assay_type": "cell-based, human", "conditions": "24 hours"}}}
{"smiles": "COc1cc([C@@H]2c3cc4c(cc3[C@@H](O[C@@H]3O[C@@H]5CO[C@@H](C)O[C@H]5[C@H](O)[C@H]3O)[C@H]3COC(=O)[C@H]23)OCO4)cc(OC)c1O", "note": "[etoposide]", "values": [{"measurement": "SA-β-gal senescence marker", "setting": "SiHa cells [1]", "value": "induced"}, {"measurement": "SA-β-gal senescence marker", "setting": "C51S cells", "value": "induced"}, {"measurement": "p53 protein levels (Western blot)", "setting": "SiHa cells [2]", "value": "induced p53 in both cell lines"}, {"measurement": "p53 protein levels (Western blot)", "setting": "SiHa-C51S cells", "value": "etoposide did"}, {"measurement": "p53 protein levels (Western blot)", "setting": "RPE-1 cells", "value": "induced p53 in both cell lines"}, {"measurement": "p53 protein (immunoblot)", "setting": "UM-SCC-104", "value": "did not induce p53"}]}
